The values that follow come from patent publication US9133128B2, “Pyrazole derivatives as cannabinoid receptor 1 antagonists” (Research Triangle Institute, priority 2011, dated 2015).

Like-named read-outs stand apart in the source and are kept apart here.

The target in experiment [1] is T1, CB1 (Homo sapiens, UniProt P21554).
T1 construct: expressed in transfected cells; host or cells: CHO-K1 (membranes)
Kind of experiment: Radioligand displacement of [3H]SR141716 at CB1. The class given is binding.

Experiment [2] addresses T1, CB1. Description: Displacement of [3H]CP55940 in membranes of CHO-K1 cells over-expressing CB1. The class given is binding. The following applies: for Binding Selectivity using CP55940 Displacement: CB2 Ki over CB1 Ki. Background: In a radioligand displacement assay an active substance lowers the binding of a labelled ligand.
Experiment [3] concerns the target T2, CB2 (Homo sapiens, UniProt P34972).
T2 construct: expressed in transfected cells; host or cells: CHO-K1 (membranes)
Kind of experiment: Displacement of [3H]CP55940 in membranes of CHO-K1 cells over-expressing CB2. In kind it is binding. As to the method: All compounds were characterized by H^1 NMR and evaluated using a calcium mobilization assay. Each compound was pharmacologically characterized using a functional fluorescent CB1 activated Gαq16-coupled intracellular calcium mobilization assay in CHO-K1 cells as has been previously described and apparent affinity (Ke) values were determined. See Zhang et al., J. Med. Chem. 2010, 53, 7048, which is incorporated herein by reference. Further characterization of select compounds was performed using radioligand displacement of [3H]1 and equilibrium dissociation constant (Ki) values were determined. Selectivity of these compounds at CB1 versus CB2 was also determined by obtaining Ki values at either receptor using displacement of [3H]CP55940 in membranes of CHO-K1 cells over-expressing either receptor. Data reported are average values from 3-6 measurements.
Select compounds were chosen for further study in radioligand displacement assays using radiolabeled rimonobant, SR141716 ([^3H]1). […] Selectivity against the CB2 receptor was determined by comparing the compound displacement of radiolabeled CP55940, which is a cannabinoid known to act as a full agonist at both CB1 and CB2 receptors. In general, tested compounds were selective for CB1 over CB2.

The target of experiment [4] is T1, CB1. Description: CB1 activated Gαq16-coupled intracellular calcium mobilization assay in CHO-K1 cells (apparent affinity Ke). In kind it is cell-based.
The mark [5] stands for this setting: Table 3, radioligand [3H]CP55940, read-out: Ki(μM) CB2 CP55940.
Where [6] appears, read: Table 4, read-out: Ki (nM) v. [3H] SR141716 at CB1.
Where [7] appears, read: Table 4, read-out: Ki (nM) v. [3H] CP55940 at CB1.
Where [8] appears, read: Table 4, read-out: Ki (nM) v. [3H] CP55940 at CB2.
[9] abbreviates: Table 4, calcium mobilization, read-out: Ke (nM) at CB1.
Where [10] appears, read: Table 5, calcium mobilization, read-out: Ke (nM) at CB1.
Setting [11] is: Table 5, read-out: Ki (nM) v. [3H] CP55940 at CB1.
Setting [12] is: Table 5, read-out: Ki (nM) v. [3H] CP55940 at CB2.

The Ki is a dissociation constant, usually derived from enzyme kinetics or from competition with a known ligand.

T2 sequence (P34972 whole entry): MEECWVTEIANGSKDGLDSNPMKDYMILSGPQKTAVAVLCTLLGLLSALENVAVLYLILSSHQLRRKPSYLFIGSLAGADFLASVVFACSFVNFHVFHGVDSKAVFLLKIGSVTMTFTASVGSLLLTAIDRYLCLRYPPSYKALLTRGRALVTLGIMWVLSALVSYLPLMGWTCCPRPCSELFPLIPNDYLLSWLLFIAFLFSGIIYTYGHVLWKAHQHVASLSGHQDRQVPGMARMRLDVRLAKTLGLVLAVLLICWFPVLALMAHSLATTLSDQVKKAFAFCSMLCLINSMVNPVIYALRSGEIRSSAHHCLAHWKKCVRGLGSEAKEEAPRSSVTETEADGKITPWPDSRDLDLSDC
T1 sequence (P21554 whole entry): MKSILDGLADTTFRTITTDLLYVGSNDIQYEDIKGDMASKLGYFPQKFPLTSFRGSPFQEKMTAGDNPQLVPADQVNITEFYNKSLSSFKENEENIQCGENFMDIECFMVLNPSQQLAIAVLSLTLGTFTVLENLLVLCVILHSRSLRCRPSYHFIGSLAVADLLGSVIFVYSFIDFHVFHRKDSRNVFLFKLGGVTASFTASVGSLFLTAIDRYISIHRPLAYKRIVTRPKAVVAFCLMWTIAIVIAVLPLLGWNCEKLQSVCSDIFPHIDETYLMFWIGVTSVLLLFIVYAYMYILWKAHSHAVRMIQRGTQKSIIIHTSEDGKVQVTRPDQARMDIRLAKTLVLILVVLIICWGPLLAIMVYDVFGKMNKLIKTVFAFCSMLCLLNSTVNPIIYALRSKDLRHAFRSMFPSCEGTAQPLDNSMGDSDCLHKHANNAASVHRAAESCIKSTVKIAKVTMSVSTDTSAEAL

In the case of `Cc1c(C(=O)NCC2CCC(CNS(C)(=O)=O)CC2)nn(-c2ccc(Cl)cc2Cl)c1-c1ccc(Cl)cc1` (mixture of isomers), the Ki in experiment [1] (Table 3, radioligand [3H]SR141716, read-out: Ki(μM) CB1 SR141716) worked out at 0.008 µM; in experiment [2] (Table 3, radioligand [3H]CP55940, read-out: Ki(μM) CB1 CP55940), 0.036 µM; in experiment [3] (setting [5]), 0.96 µM.

For `Cc1c(C(=O)NCC2CCC(CNS(N)(=O)=O)CC2)nn(-c2ccc(Cl)cc2Cl)c1-c1ccc(Cl)cc1` (mixture of isomers), the inhibition constant (Ki) in experiment [3] (setting [5]) came out at 1.79 µM.

Consider `Cc1c(C(=O)N2CCC(C(N)=O)(c3ccccc3)CC2)nn(-c2ccc(Cl)cc2Cl)c1-c1ccc(Br)cc1` [Br, phenyl, CONH2, 1-{[5-(4-bromophenyl)-1-(2,4-dichlorophenyl)-4-methyl-1H-pyrazol-3-yl]carbonyl}-4-phenylpiperidine-4-carboxamide], for which the figures for the Ki in experiment [1] (setting [6]), in experiment [2] (setting [7]) and in experiment [3] (setting [8]) were 0.00267 µM, 0.0145 µM and 3.28 µM, respectively. Besides, the “Binding Selectivity using CP55940 Displacement” value (shortened to “Binding Selectivity”) in experiment [2] (Table 4) was 226.3.

For the compound `CCCCNC(=O)NC1CCN(C(=O)c2nn(-c3ccc(Cl)cc3Cl)c(-c3ccc(Cl)cc3)c2C)CC1` [Cl, H, NHC(O)NHC4H9, 3-Butyl-1-(1-{[5-(4-chlorophenyl)-1-(2,4-dichlorophenyl)-4-methyl-1H-pyrazol-3-yl]carbonyl}piperidin-4-yl)urea], in experiment [4] (setting [9]), the Kb worked out at 395 nM.

With `Cc1c(C(=O)N2CCC(NC(=O)NC(C)C)CC2)nn(-c2ccc(Cl)cc2Cl)c1-c1ccc(Cl)cc1` [Cl, H, NHC(O)NHCH(CH3)2, 1-(1-{[5-(4-Chlorophenyl)-1-(2,4-dichlorophenyl)-4-methyl-1H-pyrazol-3-yl]carbonyl}piperidin-4-yl)-3-(propan-2-yl)urea], in experiment [4] (setting [9]), the Kb stood at 608 nM.

As to `Cc1c(C(=O)N2CCC(NC(=O)OC(C)(C)C)CC2)nn(-c2ccc(Cl)cc2Cl)c1-c1ccc(Cl)cc1` [Cl, H, NHC(O)O(t-butyl), tert-Butyl N-(1-{[5-(4-chlorophenyl)-1-(2,4-dichlorophenyl)-4-methyl-1H-pyrazol-3-yl]carbonyl}piperidin-4-yl)carbamate], the Kb in experiment [4] (setting [9]) worked out at 209 nM.

Turning to `Cc1c(C(=O)N2CCC(NS(C)(=O)=O)CC2)nn(-c2ccc(Cl)cc2Cl)c1-c1ccc(Cl)cc1` [Cl, H, NHS(O)2CH3, N-(1-{[5-(4-Chlorophenyl)-1-(2,4-dichlorophenyl)-4-methyl-1H-pyrazol-3-yl]carbonyl}piperidin-4-yl)methanesulfonamide], in experiment [4] (setting [9]), the Kb turned out to be 146 nM.

Take `CCNC1(C(N)=O)CCN(C(=O)c2nn(-c3ccc(Cl)cc3Cl)c(-c3ccc(Cl)cc3)c2C)CC1` [Cl, NHC2H5, C(O)NH2, 1-{[5-(4-chlorophenyl)-1-(2,4-dichlorophenyl)-4-methyl-1H-pyrazol-3-yl]carbonyl}-4-(ethylamino)piperidine-4-carboxamide]: the Ki in experiment [1] (setting [6]) came to 0.0346 µM; in experiment [2] (setting [7]), 0.0784 µM; in experiment [3] (setting [8]) it was 2.22 µM.

For `CCCCCCNC(=O)NC1(c2ccccc2)CCN(C(=O)c2nn(-c3ccc(Cl)cc3Cl)c(-c3ccc(Cl)cc3)c2C)CC1` [Cl, phenyl, NHC(O)NH(C6H13), 1-(1-{[5-(4-chlorophenyl)-1-(2,4-dichlorophenyl)-4-methyl-1H-pyrazol-3-yl]carbonyl}-4-phenylpiperidin-4-yl)-3-hexylurea], the “Binding Selectivity” value in experiment [2] (Table 4) is reported as 62.2. Moreover, the inhibitory constant (Ki) in experiment [2] (setting [7]) came to 0.0388 µM; in experiment [3] (setting [8]), 2.41 µM.

`Cc1c(C(=O)N2CCC(NC(=O)NC3CCCCC3)(c3ccccc3)CC2)nn(-c2ccc(Cl)cc2Cl)c1-c1ccc(Cl)cc1` [Cl, phenyl, NHC(O)NH(cyclohexyl), 3-(1-{[5-(4-chlorophenyl)-1-(2,4-dichlorophenyl)-4-methyl-1H-pyrazol-3-yl]carbonyl}-4-phenylpiperidin-4-yl)-1-cyclohexylurea]: in experiment [2] (Table 4), the “Binding Selectivity” value is reported as 25.3. Besides, the Ki was 0.792 µM in experiment [2] (setting [7]) and at least 20 µM in experiment [3] (setting [8]).

Regarding `CCCNC(=O)NC1(c2ccccc2)CCN(C(=O)c2nn(-c3ccc(Cl)cc3Cl)c(-c3ccc(Cl)cc3)c2C)CC1` [Cl, phenyl, NHC(O)NHC3H7, 1-(1-{[5-(4-chlorophenyl)-1-(2,4-dichlorophenyl)-4-methyl-1H-pyrazol-3-yl]carbonyl}-4-phenylpiperidin-4-yl)-3-propylurea], in experiment [2] (Table 4), the “Binding Selectivity” value was 38.7. For the same compound, the values for the Ki in experiment [2] (setting [7]) and in experiment [3] (setting [8]) were 0.00757 µM and 0.293 µM, respectively.

Take `CCCCNC(=O)NC1(c2ccccc2)CCN(C(=O)c2nn(-c3ccc(Cl)cc3Cl)c(-c3ccc(Cl)cc3)c2C)CC1` [Cl, phenyl, NHC(O)NHC4H9, 3-butyl-1-(1-{[5-(4-chlorophenyl)-1-(2,4-dichlorophenyl)-4-methyl-1H-pyrazol-3-yl]carbonyl}-4-phenylpiperidin-4-yl)urea]: the Kb in experiment [4] (setting [9]) amounted to 0.41 nM. Moreover, the “Binding Selectivity” value in experiment [2] (Table 4) came out at 178.1. The inhibition constant (Ki) in experiment [2] (setting [7]) was 0.0155 µM; in experiment [3] (setting [8]), 2.76 µM.

As for `CCNC(=O)NC1(c2ccccc2)CCN(C(=O)c2nn(-c3ccc(Cl)cc3Cl)c(-c3ccc(Cl)cc3)c2C)CC1` [Cl, phenyl, NHC(O)NHCH2CH3, 1-(1-{[5-(4-chlorophenyl)-1-(2,4-dichlorophenyl)-4-methyl-1H-pyrazol-3-yl]carbonyl}-4-phenylpiperidin-4-yl)-3-ethylurea], the “Binding Selectivity” value in experiment [2] (Table 4) worked out at 12.1. For the same compound, the inhibition constant (Ki) amounted to 0.015 µM in experiment [2] (setting [7]) and 0.182 µM in experiment [3] (setting [8]).

For the compound `Cc1c(C(=O)NC2CCN(C(N)=O)CC2)nn(-c2ccc(Cl)cc2Cl)c1-c1ccc(Cl)cc1` [NH2, 4-C-5-(4-chlorophenyl)-1-(2,4-dichlorophenyl)-4-methyl-1H-pyrazole-3-piperidine-1,4-diamido], the Kb in experiment [4] (setting [10]) came out at 4100 nM.

Consider `Cc1c(C(=O)NC2CCN(C(=O)NC(C)C)CC2)nn(-c2ccc(Cl)cc2Cl)c1-c1ccc(Cl)cc1` [NH(isopropyl), 4-C-5-(4-Chlorophenyl)-1-(2,4-dichlorophenyl)-4-methyl-1H-pyrazole-3-1-N-(propan-2-yl)piperidine-1,4-diamido], for which the “Binding Selectivity” value in experiment [2] (Table 5) is recorded as 175.7. Also, the inhibition constant (Ki) is 0.0979 µM in experiment [2] (setting [11]) and 17.2 µM in experiment [3] (setting [12]).

Take `CCCCNC(=O)N1CCC(NC(=O)c2nn(-c3ccc(Cl)cc3Cl)c(-c3ccc(Cl)cc3)c2C)CC1` [NH(n-butyl), 1-N-Butyl-4-C-5-(4-chlorophenyl)-1-(2,4-dichlorophenyl)-4-methyl-1H-pyrazole-3-piperidine-1,4-diamido]: the inhibitory constant (Ki) in experiment [2] (setting [11]) was 0.149 µM; in experiment [3] (setting [12]) it was above 20 µM.

Regarding `CCNC(=O)N1CCC(NC(=O)c2nn(-c3ccc(Cl)cc3Cl)c(-c3ccc(Cl)cc3)c2C)CC1` [NHC2H5, 4-C-5-(4-chlorophenyl)-1-(2,4-dichlorophenyl)-4-methyl-1H-pyrazole-3-1-N-ethylpiperidine-1,4-diamido], the “Binding Selectivity” value in experiment [2] (Table 5) was determined as 79.0. Moreover, the inhibition constant (Ki) in experiment [2] (setting [11]) was found to be 0.167 µM; in experiment [3] (setting [12]), 13.2 µM.

For `CCOC(=O)N1CCC(NC(=O)c2nn(-c3ccc(Cl)cc3Cl)c(-c3ccc(Cl)cc3)c2C)CC1` [OC2H5, Ethyl 4-[5-(4-Chlorophenyl)-1-(2,4-dichlorophenyl)-4-methyl-1H-pyrazole-3-amido]piperidine-1-carboxylate], the Kb in experiment [4] was found to be 28.6 nM. Also, the “Binding Selectivity” value in experiment [2] (Table 5) is on record as 551.1. For the same compound, the figures for the inhibition constant Ki in experiment [2] (setting [11]) and in experiment [3] (setting [12]) were 0.0146 µM and 8.07 µM, respectively.

`CCCCOC(=O)N1CCC(NC(=O)c2nn(-c3ccc(Cl)cc3Cl)c(-c3ccc(Cl)cc3)c2C)CC1` [OC4H9, Butyl 4-[5-(4-chlorophenyl)-1-(2,4-dichlorophenyl)-4-methyl-1H-pyrazole-3-amido]piperidine-1-carboxylate]: the Kb in experiment [4] (setting [10]) stood at 88 nM.
